Tests used:
[1] = system: T-type calcium channels (T-channels); settings: native T-currents; cited from earlier work
tyrosinase = settings: read-out: IC50, reversible inhibitor of tyrosinase; cited from earlier work
Spodoptera litura larvae = settings: cited from earlier work
[2] = system: most gram-positive and some gram-negative bacteria; settings: cited from earlier work
SAMP8 mice = settings: intragastric, 4-month-old SAMP8 mice, 2 months; cited from earlier work
CYP2B6 = CYP2B6 (Homo sapiens, UniProt P20813); settings: cited from earlier work
CYP3A4 = CYP3A4 (Homo sapiens, UniProt P08684); settings: cited from earlier work
CYP3A4, sequence (P08684 whole entry): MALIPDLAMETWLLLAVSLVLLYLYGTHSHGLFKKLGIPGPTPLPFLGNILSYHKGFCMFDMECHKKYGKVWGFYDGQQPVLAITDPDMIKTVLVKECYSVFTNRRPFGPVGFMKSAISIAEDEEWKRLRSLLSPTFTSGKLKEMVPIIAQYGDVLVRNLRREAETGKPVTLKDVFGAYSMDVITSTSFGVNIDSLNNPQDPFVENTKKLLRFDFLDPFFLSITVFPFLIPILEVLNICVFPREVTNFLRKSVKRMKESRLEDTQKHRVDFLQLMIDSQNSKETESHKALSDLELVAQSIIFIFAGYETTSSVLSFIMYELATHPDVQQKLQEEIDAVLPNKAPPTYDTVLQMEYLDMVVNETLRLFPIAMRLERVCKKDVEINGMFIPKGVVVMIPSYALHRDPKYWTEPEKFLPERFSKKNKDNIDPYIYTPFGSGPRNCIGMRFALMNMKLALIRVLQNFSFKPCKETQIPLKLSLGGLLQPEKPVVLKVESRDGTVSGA

CYP2C8 = CYP2C8 (Homo sapiens, UniProt P10632); settings: cited from earlier work
CYP2C8, sequence (P10632 whole entry): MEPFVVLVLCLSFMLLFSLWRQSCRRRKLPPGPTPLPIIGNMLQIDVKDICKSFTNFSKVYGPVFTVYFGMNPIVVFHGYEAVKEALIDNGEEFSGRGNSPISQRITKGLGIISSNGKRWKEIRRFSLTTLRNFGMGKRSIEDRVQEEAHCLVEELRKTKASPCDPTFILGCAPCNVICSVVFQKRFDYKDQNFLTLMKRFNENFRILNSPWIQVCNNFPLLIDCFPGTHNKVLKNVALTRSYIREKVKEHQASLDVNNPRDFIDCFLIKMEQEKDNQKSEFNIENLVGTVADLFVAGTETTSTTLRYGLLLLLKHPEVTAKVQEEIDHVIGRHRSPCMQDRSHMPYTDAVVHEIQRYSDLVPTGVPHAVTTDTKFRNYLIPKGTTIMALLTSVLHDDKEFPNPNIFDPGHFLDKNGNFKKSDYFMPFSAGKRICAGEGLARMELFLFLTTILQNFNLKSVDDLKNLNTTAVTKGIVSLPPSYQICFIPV

CYP2C9 = CYP2C9 (Homo sapiens, UniProt P11712); settings: cited from earlier work
CYP2C9, sequence (P11712 whole entry): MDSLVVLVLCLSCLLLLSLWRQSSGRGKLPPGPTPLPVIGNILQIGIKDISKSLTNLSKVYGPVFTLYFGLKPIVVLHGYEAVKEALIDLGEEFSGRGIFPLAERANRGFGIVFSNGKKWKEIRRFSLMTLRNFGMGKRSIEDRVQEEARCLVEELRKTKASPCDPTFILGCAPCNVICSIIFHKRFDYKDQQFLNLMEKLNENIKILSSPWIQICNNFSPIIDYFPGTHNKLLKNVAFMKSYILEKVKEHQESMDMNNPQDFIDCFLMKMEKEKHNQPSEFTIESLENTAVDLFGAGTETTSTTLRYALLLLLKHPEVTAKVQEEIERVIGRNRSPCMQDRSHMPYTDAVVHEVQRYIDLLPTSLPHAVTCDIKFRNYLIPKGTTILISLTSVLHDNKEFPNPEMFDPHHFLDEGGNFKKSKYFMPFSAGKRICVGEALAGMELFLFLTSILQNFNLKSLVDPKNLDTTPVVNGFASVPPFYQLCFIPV

CYP2C19 = CYP2C19 (Homo sapiens, UniProt P33261); settings: cited from earlier work
human SIRT1 = human SIRT1 (Homo sapiens, UniProt Q96EB6); settings: read-out: IC50, inhibition of human SIRT1; cited from earlier work
human SIRT1, sequence (Q96EB6 whole entry): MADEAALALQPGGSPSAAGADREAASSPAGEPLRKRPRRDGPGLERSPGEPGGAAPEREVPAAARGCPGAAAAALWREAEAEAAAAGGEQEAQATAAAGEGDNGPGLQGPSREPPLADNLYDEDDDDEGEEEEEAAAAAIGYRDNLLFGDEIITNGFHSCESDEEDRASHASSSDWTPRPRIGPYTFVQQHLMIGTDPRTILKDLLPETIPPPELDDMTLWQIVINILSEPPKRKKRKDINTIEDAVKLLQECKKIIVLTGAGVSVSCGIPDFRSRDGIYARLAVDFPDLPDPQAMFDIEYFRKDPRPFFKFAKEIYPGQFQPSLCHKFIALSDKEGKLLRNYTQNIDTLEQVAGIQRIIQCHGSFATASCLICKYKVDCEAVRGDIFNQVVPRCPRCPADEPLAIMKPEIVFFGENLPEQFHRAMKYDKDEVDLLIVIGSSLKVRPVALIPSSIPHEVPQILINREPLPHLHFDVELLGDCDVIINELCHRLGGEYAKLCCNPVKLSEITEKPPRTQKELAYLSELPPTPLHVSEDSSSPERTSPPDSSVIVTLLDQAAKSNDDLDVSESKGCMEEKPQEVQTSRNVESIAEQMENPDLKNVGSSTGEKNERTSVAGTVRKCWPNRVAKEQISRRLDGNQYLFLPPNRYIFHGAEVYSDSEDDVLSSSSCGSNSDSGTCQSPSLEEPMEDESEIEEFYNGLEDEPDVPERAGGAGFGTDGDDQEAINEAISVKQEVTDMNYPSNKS

human SIRT2 = human SIRT2 (Homo sapiens, UniProt Q8IXJ6); settings: read-out: IC50, inhibition of human SIRT2; cited from earlier work
human SIRT2, sequence (Q8IXJ6 whole entry): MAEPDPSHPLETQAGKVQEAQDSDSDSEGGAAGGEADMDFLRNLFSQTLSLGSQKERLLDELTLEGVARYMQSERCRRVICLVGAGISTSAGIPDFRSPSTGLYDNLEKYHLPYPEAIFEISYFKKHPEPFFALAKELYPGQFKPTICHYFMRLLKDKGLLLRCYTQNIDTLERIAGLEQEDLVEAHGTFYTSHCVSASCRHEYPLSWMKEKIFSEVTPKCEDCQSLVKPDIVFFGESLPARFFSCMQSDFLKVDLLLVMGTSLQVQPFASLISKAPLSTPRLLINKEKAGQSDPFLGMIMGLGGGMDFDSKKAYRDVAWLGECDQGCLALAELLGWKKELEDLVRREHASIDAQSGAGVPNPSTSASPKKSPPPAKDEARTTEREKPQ

[3] = molecular target: fibroblast growth factor receptor 1 (FGFR1) (Homo sapiens, UniProt P11362); settings: cited from earlier work
FGFR2 = FGFR2 (Homo sapiens, UniProt P21802); settings: cited from earlier work
FGFR2, sequence (P21802 22-821, species assumed): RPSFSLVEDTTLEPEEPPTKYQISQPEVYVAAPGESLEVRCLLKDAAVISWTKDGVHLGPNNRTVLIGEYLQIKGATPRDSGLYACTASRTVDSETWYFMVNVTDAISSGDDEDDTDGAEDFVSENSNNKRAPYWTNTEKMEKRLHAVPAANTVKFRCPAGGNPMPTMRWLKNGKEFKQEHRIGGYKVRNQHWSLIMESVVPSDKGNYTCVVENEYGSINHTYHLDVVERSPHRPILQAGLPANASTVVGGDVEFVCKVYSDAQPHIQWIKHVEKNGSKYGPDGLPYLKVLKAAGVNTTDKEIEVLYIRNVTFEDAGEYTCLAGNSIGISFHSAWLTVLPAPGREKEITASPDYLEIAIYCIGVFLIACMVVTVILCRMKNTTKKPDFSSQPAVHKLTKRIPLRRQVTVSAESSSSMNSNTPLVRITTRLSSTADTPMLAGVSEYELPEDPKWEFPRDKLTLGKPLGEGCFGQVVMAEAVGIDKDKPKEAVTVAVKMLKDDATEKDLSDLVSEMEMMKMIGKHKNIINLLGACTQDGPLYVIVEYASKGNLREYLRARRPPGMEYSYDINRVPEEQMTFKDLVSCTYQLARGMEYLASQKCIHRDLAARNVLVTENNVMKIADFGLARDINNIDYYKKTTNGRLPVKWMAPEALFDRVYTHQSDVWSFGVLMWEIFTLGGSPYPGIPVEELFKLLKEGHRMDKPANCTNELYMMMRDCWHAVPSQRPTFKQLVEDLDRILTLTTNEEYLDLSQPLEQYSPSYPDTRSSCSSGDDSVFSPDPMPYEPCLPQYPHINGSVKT

SV-129 mice = settings: 450 mg/kg during a 15-minute period, after chronic simvastatin 2 mg/kg s.c. daily for 14 days; cited from earlier work
[4] = molecular target: N-methyl-D-aspartate receptors (NMDARs) (Homo sapiens, UniProt Q05586); settings: read-out: KB, competitive antagonist for the glycine-binding site of NMDARs; cited from earlier work
[5] = 510 mg/day, patients, cited from earlier work
S. aureus = settings: cited from earlier work
most molds = settings: for most molds; cited from earlier work
[6] = static toxicity tests; cited from earlier work
HSV-1 = settings: cited from earlier work
[7] = system: vesicular stomatitis virus (VSV); settings: cited from earlier work
poliovirus = settings: cited from earlier work
Yeast-made GLUT1 = molecular target: T1, Yeast-made GLUT1 (Rattus norvegicus, UniProt P11167); settings: cited from earlier work
T1 construct: host or cells: yeast
T1 sequence (P11167 whole entry): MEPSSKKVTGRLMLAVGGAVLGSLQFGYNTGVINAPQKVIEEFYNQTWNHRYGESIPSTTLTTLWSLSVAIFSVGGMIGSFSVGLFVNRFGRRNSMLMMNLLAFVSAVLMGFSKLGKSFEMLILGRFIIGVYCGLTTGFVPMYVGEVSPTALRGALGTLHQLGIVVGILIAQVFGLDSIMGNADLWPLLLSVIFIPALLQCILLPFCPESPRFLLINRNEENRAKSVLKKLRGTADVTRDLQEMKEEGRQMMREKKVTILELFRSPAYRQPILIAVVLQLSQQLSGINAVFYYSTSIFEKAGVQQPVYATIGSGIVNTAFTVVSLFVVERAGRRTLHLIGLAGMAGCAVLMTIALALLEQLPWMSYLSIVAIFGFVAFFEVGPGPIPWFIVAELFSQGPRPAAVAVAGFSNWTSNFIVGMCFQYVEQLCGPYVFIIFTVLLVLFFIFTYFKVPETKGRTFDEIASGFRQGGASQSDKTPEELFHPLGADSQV

Human erythrocyte GLUT1 = molecular target: T2, Human erythrocyte GLUT1 (Homo sapiens, UniProt P11166); settings: cited from earlier work
T2 construct: Human erythrocyte GLUT1; from tissue; host or cells: human erythrocytes
T2 sequence (P11166 whole entry): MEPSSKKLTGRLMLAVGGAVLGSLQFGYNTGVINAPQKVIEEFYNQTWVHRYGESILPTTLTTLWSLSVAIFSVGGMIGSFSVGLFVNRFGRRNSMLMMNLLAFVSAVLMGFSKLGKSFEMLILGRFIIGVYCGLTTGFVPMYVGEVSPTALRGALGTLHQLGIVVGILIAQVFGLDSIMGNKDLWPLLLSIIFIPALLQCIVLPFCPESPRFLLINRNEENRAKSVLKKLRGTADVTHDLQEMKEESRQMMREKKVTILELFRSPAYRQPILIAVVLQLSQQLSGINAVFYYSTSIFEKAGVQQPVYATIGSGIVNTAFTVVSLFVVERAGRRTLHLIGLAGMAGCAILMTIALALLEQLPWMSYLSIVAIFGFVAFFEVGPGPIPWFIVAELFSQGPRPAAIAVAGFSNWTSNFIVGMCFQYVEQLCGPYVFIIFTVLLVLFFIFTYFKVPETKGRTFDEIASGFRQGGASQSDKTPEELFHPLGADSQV

[8] = system: carrageenan-induced edema and nociception; settings: 25, 50 or 100 mg/kg, i.p., immediately and 2 h after injection of carrageenan; cited from earlier work
[9] = system: fever induced by lipopolysaccharide (LPS); settings: 50 or 100 mg/kg, i.p., 0 and 2 h, rats; cited from earlier work
COX-2 = COX-2 (Homo sapiens, UniProt P35354); settings: read-out: IC50, inhibition of COX-2 activity; cited from earlier work
COX-2, sequence (P35354 18-604): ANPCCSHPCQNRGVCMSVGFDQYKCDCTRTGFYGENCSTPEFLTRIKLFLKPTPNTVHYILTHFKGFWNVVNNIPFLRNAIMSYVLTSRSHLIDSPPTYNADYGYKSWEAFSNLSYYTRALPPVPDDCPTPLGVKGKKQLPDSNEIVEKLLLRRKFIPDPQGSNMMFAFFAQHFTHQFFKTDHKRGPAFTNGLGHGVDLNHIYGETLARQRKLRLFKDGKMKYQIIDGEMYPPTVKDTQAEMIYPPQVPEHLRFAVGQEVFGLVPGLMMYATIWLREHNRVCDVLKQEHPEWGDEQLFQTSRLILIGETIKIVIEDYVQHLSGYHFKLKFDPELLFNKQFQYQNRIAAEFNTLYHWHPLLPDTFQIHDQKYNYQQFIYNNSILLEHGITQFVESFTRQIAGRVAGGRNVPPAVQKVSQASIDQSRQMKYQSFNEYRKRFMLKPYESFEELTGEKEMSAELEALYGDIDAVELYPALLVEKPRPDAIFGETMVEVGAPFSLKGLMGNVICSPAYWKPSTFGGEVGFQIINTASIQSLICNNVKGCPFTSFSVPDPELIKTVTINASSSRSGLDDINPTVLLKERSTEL

TRPM8 = TRPM8 (Homo sapiens, UniProt Q7Z2W7); settings: read-out: EC50, agonist of TRPM8; cited from earlier work
hERG channel = hERG channel (Homo sapiens, UniProt Q12809); settings: read-out: IC50, hERG channel blocker; cited from earlier work
THP1 HMGB1 Lucia cells = assay: Pyroptosis inhibition luciferase assay (LPS + nigericin, HMGB1 luciferase reporter, QUANTI-Luc); settings: 1 μg/ml LPS 3 h, then 10 μM nigericin 3 h
[10] = system: fibroblasts, peripheral blood mononuclear cells (PBMCs), myoblasts; assay: Reversal of aging (reducing predicted age) in cultured young/old cells contacted with disulfiram plus potentiating ingredients; settings: concentrations 0.000005 to 80 μM; potentiating ingredient up to 25 μM
[11] = system: periodontopathic and cariogenic bacteria; settings: cited from earlier work
β-glucosidase = settings: cited from earlier work

Question: With CCCCCCCCO [1-Octanol] as the compound, how does the IC50 [1] read?
Answer: 4 µM

Question: Which IC50 (tyrosinase) does the source give for O=C(O)CCC(=O)C(=O)O [2-Ketoglutaric acid] here?
Answer: 15000 µM

Question: With CCCC=C1OC(=O)c2ccccc21 [3-Butylidenephthalide] as the compound, how does the LC50 larvicidal activity (Spodoptera litura larvae) read?
Answer: activity (LC50 of 1.56 mg/g for Spodoptera

Question: For O=C(O)c1ccc(O)cc1 [4-Hydroxybenzoic acid], which “IC50, inhibition of most gram-positive and some gram-negative bacteria” value [2] is on record?
Answer: of 160 μg/mL.

Question: What does the source list for CCCCC1OC(=O)c2ccccc21 (stereo not shown) [Butylphthalide]?
Answer: loss of choline acetyltransferase (ChAT)-positive neurons in the medial septal nucleus and vertical limb of the diagonal band (SAMP8 mice): diagonal band in SAMP8 mice was slowed down,; spatial learning and memory ability (SAMP8 mice): 2 months significantly improved spatial learning a

Question: With C[C@@H]1CC[C@H]2C(C)(C)[C@H]3C[C@@]12CC[C@@]3(C)O [Cedrol] as the compound, how does the Ki (CYP2B6) read?
Answer: 0.9 µM

Question: What about the Ki (CYP3A4) of the same compound?
Answer: 3.4 µM

Question: And the “inhibitory effect on CYP2C8” value (CYP2C8)?
Answer: has weak inhibitory effect on CYP2C8,

Question: And the “inhibitory effect on CYP2C9” value (CYP2C9)?
Answer: has weak inhibitory effect on CYP2C8,

Question: And the “inhibitory effect on CYP2C19” value (CYP2C19)?
Answer: has weak inhibitory effect on CYP2C8,

Question: Which results are given for O=C1CCc2ccccc2O1 [Dihydrocoumarin]?
Answer: IC50 (human SIRT1): 208 µM; IC50 (human SIRT2): 295 µM

Question: With COc1cc(/C=C/C(=O)O)ccc1O [Ferulic acid (sodium)] as the compound, how does the IC50 [3] read?
Answer: 3.78 µM

Question: What about the IC50 (FGFR2) of the same compound?
Answer: 12.5 µM

Question: Which “hyperemia amplified and sustained” value (SV-129 mice) does the source give for N=C(N)NCCC[C@H](N)C(=O)O [L-Arginine] here?
Answer: hyperemia (38%) and increases absolute brain

Question: For N[C@@H](Cc1ccccc1)C(=O)O [L-Phenylalanine], which Kb [4] is on record?
Answer: 573 µM

Question: For C[N+](C)(C)C[C@H](O)CC(=O)[O-] [L-carnitine], which “total time for dozing off during the daytime, calculated from the sleep logs” value ([5]; compared with placebo-treated periods) is on record?
Answer: improved the total time for dozing off during the

Question: What about the serum acylcarnitine levels [5] of the same compound?
Answer: (Levocarnitine) efficiently increased serum acyl-

Question: What about the serum triglycerides concentration [5] of the same compound?
Answer: carnitine levels, and reduced serum triglycerides

Question: For CCCCCCCCCCCC(=O)O [Lauric acid], which “EC50 for S. aureus” value (S. aureus) is on record?
Answer: 6 µg/mL

Question: With C[C@@H]1C/C=C/C=C/C=C/C=C/[C@H](O[C@@H]2O[C@H](C)[C@@H](O)[C@H](N)[C@@H]2O)C[C@@H]2O[C@](O)(C[C@@H](O)C[C@H]3O[C@@H]3/C=C/C(=O)O1)C[C@H](O)[C@H]2C(=O)O [Natamycin] as the compound, how does the “MIC (minimum inhibitory concentration)” value (most molds) read?
Answer: concentration) of less than 10 ppm for most molds.

Question: Which 4d-EC50 [6] does the source give for CCCCCCCCC(=O)NCc1ccc(O)c(OC)c1 [Nonivamide] here?
Answer: exhibits 4d-EC50 value of 5.1 mg/L in static

Question: For CCCCCCCCOC(=O)c1cc(O)c(O)c(O)c1 [Octyl gallate], which “antiviral effect against HSV-1” value (HSV-1) is on record?
Answer: Octyl gallate shows a marked antiviral effect

Question: What about the “antiviral effect against vesicular stomatitis virus (VSV)” value [7] of the same compound?
Answer: Octyl gallate shows a marked antiviral effect

Question: What about the “antiviral effect against poliovirus” value (poliovirus) of the same compound?
Answer: Octyl gallate shows a marked antiviral effect

Question: With O=C(CCc1ccc(O)cc1)c1c(O)cc(O)cc1O [Phloretin] as the compound, how does the IC50 (Yeast-made GLUT1) read?
Answer: 49 µM

Question: What about the IC50 (Human erythrocyte GLUT1) of the same compound?
Answer: 61 µM

Question: Which antinociceptive effect [8] does the source give for Cc1cc2nc3c(=O)[nH]c(=O)nc-3n(C[C@H](O)[C@H](O)[C@H](O)CO)c2cc1C [Riboflavin] here?
Answer: antinociceptive effects. The antinociceptive effect

Question: And the “fever induced by lipopolysaccharide (LPS)” value [9]?
Answer: 2 h) also inhibited the fever induced by lipopoly-

Question: With COc1cc(C=O)cc(OC)c1O [Syringaldehyde] as the compound, how does the IC50 (COX-2) read?
Answer: 19.2 µM

Question: For CCNC(=O)C1CC(C)CCC1C(C)C (stereo not shown) [TRPM8 antagonist WS-3], which EC50 (TRPM8) is on record?
Answer: 3.7 µM

Question: For O=C(OC[C@H]1O[C@@H](OC(=O)c2cc(O)c(O)c(OC(=O)c3cc(O)c(O)c(O)c3)c2)[C@H](OC(=O)c2cc(O)c(O)c(OC(=O)c3cc(O)c(O)c(O)c3)c2)[C@@H](OC(=O)c2cc(O)c(O)c(OC(=O)c3cc(O)c(O)c(O)c3)c2)[C@@H]1OC(=O)c1cc(O)c(O)c(OC(=O)c2cc(O)c(O)c(O)c2)c1)c1cc(O)c(O)c(OC(=O)c2cc(O)c(O)c(O)c2)c1 [Tannic acid], which IC50 (hERG channel) is on record?
Answer: 3.4 µM

Question: What does the source list for O=C/C=C/c1ccccc1 [cinnamaldehyde, (2E)-3-Phenyl-2-propenal]?
Answer: inhibition of pyroptosis (HMGB1 luciferase reporter in supernatant) (THP1 HMGB1 Lucia cells): no effect; ability to potentiate disulfiram in reversing aging of cells [10]: identified as a potentiating ingredient

Question: With CC1=CCC(C(C)(C)O)CC1 (stereo not drawn) [α-Terpineol] as the compound, how does the “antimicrobial activity against periodontopathic and cariogenic bacteria” value [11] read?
Answer: Labill, exhibits strong antimicrobial activity

Question: For Rebaudioside A, which “IC 50 (Target: β-glucosidase)” value (β-glucosidase) is on record?
Answer: IC 50: 35.01 ug/mL
